Measured values taken from US4525475A, “Prevention of thrombolic disorder with imidazole derivatives and salts thereof” (priority 1979, dated 1985).
Read-outs that look alike come from different tables or passages of the source.

Legend:
serum cholesterol = details: U.K. Pat. No. 1 364 312; Biochem. Pharmacol., 24, 1902-1903, 1975; cited from earlier work
TXA2 synthetase = molecular target: T1, TXA2 synthetase (Equus caballus, UniProt A0A9L0T8T9); assay: Inhibition of TXA2 synthetase: thromboxane (thromboxane B2) produced from labelled arachidonic acid by homogenised horse platelets; format: biochemical; details: horse platelet homogenate, 100 mM Tris buffer pH 7.4, 5 min preincubation at ambient temperature, 3 min at 37° C. with arachidonic acid
T1 construct: labelled arachidonic acid as substrate, thromboxane B2 measured by TLC
T1 sequence (A0A9L0T8T9 2-534): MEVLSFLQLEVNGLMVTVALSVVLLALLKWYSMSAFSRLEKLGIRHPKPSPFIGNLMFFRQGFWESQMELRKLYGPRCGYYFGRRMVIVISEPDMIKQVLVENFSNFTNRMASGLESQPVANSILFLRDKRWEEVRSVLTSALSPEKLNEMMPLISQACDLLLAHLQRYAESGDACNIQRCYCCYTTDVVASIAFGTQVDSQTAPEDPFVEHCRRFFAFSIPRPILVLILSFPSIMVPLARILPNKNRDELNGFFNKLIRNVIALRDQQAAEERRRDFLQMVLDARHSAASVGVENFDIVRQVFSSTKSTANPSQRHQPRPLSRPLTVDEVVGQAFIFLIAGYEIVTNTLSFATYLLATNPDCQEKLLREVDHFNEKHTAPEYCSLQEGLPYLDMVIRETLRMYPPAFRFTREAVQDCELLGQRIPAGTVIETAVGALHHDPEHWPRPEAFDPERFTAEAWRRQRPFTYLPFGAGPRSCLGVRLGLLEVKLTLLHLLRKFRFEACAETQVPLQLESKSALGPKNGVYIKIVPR
Description: (§1) Horse platelets were prepared from whole horse blood by differential centrifugation. Approximately 10^6 platelets were homogenised in 1 ml 100 mM Tris buffer pH 7.4. Various concentrations of active compound were added and the reaction sets incubated for 5 minutes at ambient temperature. To each tube was added 20 nM of arachidonic acid containing 10^6 disintegrations per minute (DPM) of labelled arachidonic acid and the tubes incubated for 3 minutes at 37° C. in a shaking water bath. After incubation the radioactive products were extracted from the acidified aqueous phase with ethyl acetate and after concentration resolved by thin layer chromatography on silica gel with chloroform/methanol/acetic acid/water (90:8:1:0.8) as a developing solvent. The amount of thromboxane produced was measured by scraping the radioactive zone corresponding to thromboxane B2 and estimating the radioactivity in a liquid scintillation counter.
The concentration of active compound to reduce the enzyme activity by 50% (ED50) was established.

PGE, PGF and PGD = assay: Selectivity: amount of PGE, PGF and PGD produced, measured in a similar manner to the thromboxane test; format: biochemical, horse; parameters: key: 0: no selectivity; +: low selectivity; ++: medium selectivity; +++: high selectivity; ++++: exceptionally high selectivity; details: greater selectivity = more anti-aggregating prostaglandins produced
Description: as §1
The selectivity of the active compounds was measured in a similar manner to that described above and the amount of PGE, PGF and PGD produced was determined. The greater the selectivity, the more of the anti-aggregating prostaglandins are produced.
The ED50 and Selectivity results are shown in Table A in which 0 indicates no selectivity; +low selectivity; ++medium selectivity; +++high selectivity: ++++exceptionally high selectivity; ND not determined.

[1] = test system: enzymic conversion of the endoperoxides (PGG2 and PGH2) to thromboxane A2 by platelet microsomes; details: Moncada et al., Prostaglandins, 13/4, 611-618, 1977; cited from earlier work
[2] = read-out: ED50 (concentration of active compound to reduce the enzyme activity by 50%) (converted)

Compound: CCCCCCCCCCCCn1ccnc1 [1-n-dodecylimidazole]
- lowering serum cholesterol levels (serum cholesterol): capable of lowering serum cholesterol levels

Compound: C1=CC2CC1CC2CC(C1CC2C=CC1C2)n1ccnc1 (centres unmarked) [Example 13, 1-{1,2-[Bis-(bicyclo[2.2.1]hept-5-en-2-yl)]ethyl}imidazole]
- IC50 (TXA2 synthetase; [2]): 89.2 µM
- Selectivity (PGE, PGF and PGD): ++

Compound: c1cn(C2CC3CCC2C3)cn1 (centres unmarked) [Example 11, 1-(Bicyclo[2.2.1]heptan-2-yl)imidazole]
- IC50 (TXA2 synthetase; [2]): 290 µM

Compound: CC1(C)C2CCC(CCn3ccnc3)C1C2 (centres unmarked) [Example 1, 1-[2-(6,6-dimethylbicyclo[3.1.1]heptan-2-yl)ethyl]imidazole]
- IC50 (TXA2 synthetase; [2]): 19.7 µM
- Selectivity (PGE, PGF and PGD): +++

Compound: Cn1ccnc1 [1-Methylimidazole, reference compound]
- IC50 (TXA2 synthetase; [2]): ≥ 2440 µM
- inhibition of the enzymic conversion of the endoperoxides to thromboxane A2 [1]: some degree of inhibition
- Selectivity (PGE, PGF and PGD): ++

Compound: C1=CC2CC1CC2Cn1ccnc1 (centres unmarked) [Example 3, 1-(Bicyclo[2.2.1]hept-5-en-2-ylmethyl)imidazole]
- IC50 (TXA2 synthetase; [2]): 57.4 µM
- Selectivity (PGE, PGF and PGD): +++

Compound: CC1(C)C2CC=C(CCn3ccnc3)C1C2 (centres unmarked) [Example 2, 1-[2-(6,6-Dimethylbicyclo[3.1.1]hept-2-en-2-yl)ethyl]imidazole]
- IC50 (TXA2 synthetase; [2]): 16.2 µM
- Selectivity (PGE, PGF and PGD): +++

Compound: c1c[nH]cn1 [Imidazole]
- IC50 (TXA2 synthetase; read-out: ED50 (concentration of active compound to reduce the enzyme activity by 50%)): ≥ 7340 µM
- inhibition of the enzymic conversion of the endoperoxides to thromboxane A2 [1]: some degree of inhibition

Compound: CC1(C)C2CCC(Cn3ccnc3)C1C2 (centres unmarked) [Example 8, 1-(6,6-Dimethylbicyclo[3.1.1]heptan-2-ylmethyl)imidazole]
- IC50 (TXA2 synthetase; [2]): 24.5 µM
- Selectivity (PGE, PGF and PGD): +++

Compound: CC1(C)C2CC=C(Cn3ccnc3)C1C2 (centres unmarked) [Example 7, 1-(6,6-Dimethylbicyclo[3.1.1]hept-2-en-2-ylmethyl)imidazole]
- IC50 (TXA2 synthetase; [2]): 74.1 µM
- Selectivity (PGE, PGF and PGD): +++

Compound: c1cn(CC2COC3(CCCCC3)O2)cn1 (centres unmarked) [Example 10, 1-(1,4-Dioxaspiro[4.5]decan-2-ylmethyl)imidazole]
- IC50 (TXA2 synthetase; [2]): > 225 µM

Compound: c1cn(CC2CN3CCC2CC3)cn1 (centres unmarked) [Example 12, 1-(1-Azabicyclo[2.2.2]octan-3-ylmethyl)imidazole]
- IC50 (TXA2 synthetase; [2]): 157 µM
- Selectivity (PGE, PGF and PGD): ++

Compound: c1cn(CC2CC3CCC2C3)cn1 (centres unmarked) [Example 4, 1-(Bicyclo[2.2.1]heptan-2-ylmethyl)imidazole]
- IC50 (TXA2 synthetase; [2]): 28.4 µM
- Selectivity (PGE, PGF and PGD): +++

Compound: c1cn(CCC23CC4CC(CC(C4)C2)C3)cn1 [Example 9, 1-[2-(Adamantan-1-yl)ethyl]imidazole]
- IC50 (TXA2 synthetase; [2]): 65.1 µM
- Selectivity (PGE, PGF and PGD): ++++

Compound: c1cn(CC2C3CC4C(C3)C24)cn1 (centres unmarked) [15 (c), 1-(Tricyclo[2.2.1.0^3,5]heptan-2-ylmethyl)imidazole]
- IC50 (TXA2 synthetase; [2]): < 57.4 µM
- Selectivity (PGE, PGF and PGD): +++

Compound: CC1(C)C(=CCn2ccnc2)C2CCC1C2 (centres unmarked) [15 (b), 1-[2-(3,3-Dimethylbicyclo[2.2.1]heptan-2-ylidene)ethyl]imidazole]
- IC50 (TXA2 synthetase; [2]): < 69.3 µM
